Data reported in patent publication US20050250801A1, “Method of treating cancer with azaspirane compositions” (priority 2003, published 2005).
Like-named read-outs stand apart in the source and are kept apart here.

How the values were obtained:
Assay type in all cases: cell-based
DU-145 = assay: NCI in vitro SRB assay, Prostate Cancer; settings: for GI50: Homo sapiens
Method: (§1) An in vitro assay which tested the ability of N,N,-diethyl-8,8-dipropyl-2-azaspiro[4,5]decane-2-propanamine dimaleate (Compound 1) to inhibit the growth of known cancer cell lines was performed by the National Cancer Institute in accordance with standard procedures. See: Lin, Z. X., Hoult, J. R., and Raman, A. Sulphorhodamine B assay for measuring proliferation of a pigmented melanocyte cell line and its application to the evaluation of crude drugs used in the treatment of vitiligo. J Ethnopharmacol. 66: 141-150, 1999. Briefly, selected tumor cell lines were cultured in media containing five different concentrations of Compound 1. After 48 hours of continuous exposure, a sulforhodamine B (SRB) assay was used to estimate cell viability or growth via optical measurements.
(§2) From the measurements, the following values were determined: 1) the concentration of Compound 1 at which a tumor cell growth inhibition of 50% (relative to control) occurs (GI50), 2) the concentration of Compound 1 at which no growth occurs (total growth inhibition, TGI), and 3) the concentration of Compound 1 at which the […] (LC 50). […] FIG. 6 illustrates, graphically, tumor cell growth as a function of Compound 1 concentration of the scanned tumor cell lines.

PC-3 = assay: NCI in vitro SRB assay, Prostate Cancer; settings: for CC50 / GI50: Homo sapiens
Method: as §1, §2

HUVEC cells = assay: Inhibition of HUVEC proliferation (WST-1, Example 2); settings: Homo sapiens
TK-10 = assay: NCI in vitro SRB assay, Renal Cancer; settings: for CC50 / GI50: Homo sapiens
Method: as §1, §2

HUVEC = HUVEC cord formation assay (Matrigel); settings: Homo sapiens, 24 hour incubation, read-out: IC50 Concentration, Cord Formation
Method: Matrigel (60 μl of 10 mg/ml; Collaborative Lab # 35423) was placed in each well of an ice-cold 96-well plate. The plate is allowed to sit at room temperature for 15 minutes then incubated at 37° C. for 30 minutes to permit the matrigel to polymerize. In the mean time, HUVEC are prepared in EGM-2 (Clonetic# CC3162) at a concentration of 2×10^5 cells/ml. Test solutions of Compound I are prepared at 2× the desired concentration (5 concentration levels) in the same medium. The cells (500 μl) and 2× Compound 1 (500 μl) solution are mixed and 200 μl of this suspension are placed in duplicate on the polymerized matrigel. After a 24 hour incubation, triplicate pictures are taken for each concentration using a Bioquant Image Analysis system. Drug effect (IC50) is assessed compared to untreated controls by measuring the length of cords formed and number of junctions, and is reported in Table 8.

Compound: CCCC1(CCC)CCC2(CCN(CCCN(CC)CC)C2)CC1.O=C(O)/C=C\C(=O)O.O=C(O)/C=C\C(=O)O [Compound 1, N,N,-diethyl-8,8-dipropyl-2-azaspiro[4,5]decane-2-propanamine dimaleate]
- Log10 TGI (DU-145): −5.51
- TGI (DU-145): 3.09 µM
- GI50 (DU-145; read-out: GI50): 1.7 µM
- GI50 (DU-145; read-out: Log10 GI50 (converted)): 1.7 µM
- Mean Optical Densities (DU-145; Log10 conc -4.0 Moles/L): −0.032
- Percent Growth (DU-145; Log10 conc -4.0 Moles/L): −100%
- Mean Optical Densities (DU-145; Log10 conc -5.0 Moles/L): 0.005
- Percent Growth (DU-145; Log10 conc -5.0 Moles/L): −98%
- Mean Optical Densities (DU-145; Log10 conc -6.0 Moles/L): 0.733
- Percent Growth (DU-145; Log10 conc -6.0 Moles/L): 94%
- Mean Optical Densities (DU-145; Log10 conc -7.0 Moles/L): 0.766
- Percent Growth (DU-145; Log10 conc -7.0 Moles/L): 101%
- Mean Optical Densities (DU-145; Log10 conc -8.0 Moles/L): 0.728
- Percent Growth (DU-145; Log10 conc -8.0 Moles/L): 93%
- CC50 (PC-3; PC-3, read-out: LC50): 6.68 µM
- CC50 (PC-3; PC-3, read-out: Log10 LC50 (converted)): 6.61 µM
- GI50 (PC-3; PC-3, read-out: GI50): 1.71 µM
- GI50 (PC-3; PC-3, read-out: Log10 GI50 (converted)): 1.7 µM
- Log10 TGI (PC-3; PC-3): −5.47
- TGI (PC-3; PC-3): 3.38 µM
- Mean Optical Densities (PC-3; PC-3, Log10 conc -4.0 Moles/L): 0.037
- Percent Growth (PC-3; PC-3, Log10 conc -4.0 Moles/L): −90%
- Mean Optical Densities (PC-3; PC-3, Log10 conc -5.0 Moles/L): 0.073
- Percent Growth (PC-3; PC-3, Log10 conc -5.0 Moles/L): −80%
- Mean Optical Densities (PC-3; PC-3, Log10 conc -6.0 Moles/L): 1.953
- Percent Growth (PC-3; PC-3, Log10 conc -6.0 Moles/L): 89%
- Mean Optical Densities (PC-3; PC-3, Log10 conc -7.0 Moles/L): 2.067
- Percent Growth (PC-3; PC-3, Log10 conc -7.0 Moles/L): 96%
- Mean Optical Densities (PC-3; PC-3, Log10 conc -8.0 Moles/L): 2.116
- Percent Growth (PC-3; PC-3, Log10 conc -8.0 Moles/L): 99%
- IC50 (HUVEC cells): 1.25 to 2.5 µM
- CC50 (TK-10; TK-10, read-out: LC50): 5.52 µM
- CC50 (TK-10; TK-10, read-out: Log10 LC50 (converted)): 5.5 µM
- GI50 (TK-10; TK-10, read-out: GI50): 1.27 µM
- GI50 (TK-10; TK-10, read-out: Log10 GI50 (converted)): 1.26 µM
- Log10 TGI (TK-10; TK-10): −5.58
- TGI (TK-10; TK-10): 2.65 µM
- Mean Optical Densities (TK-10; TK-10, Log10 conc -4.0 Moles/L): 0.101
- Percent Growth (TK-10; TK-10, Log10 conc -4.0 Moles/L): −89%
- Mean Optical Densities (TK-10; TK-10, Log10 conc -5.0 Moles/L): 0.087
- Percent Growth (TK-10; TK-10, Log10 conc -5.0 Moles/L): −90%
- Mean Optical Densities (TK-10; TK-10, Log10 conc -6.0 Moles/L): 1.283
- Percent Growth (TK-10; TK-10, Log10 conc -6.0 Moles/L): 66%
- Mean Optical Densities (TK-10; TK-10, Log10 conc -7.0 Moles/L): 1.389
- Percent Growth (TK-10; TK-10, Log10 conc -7.0 Moles/L): 85%
- Mean Optical Densities (TK-10; TK-10, Log10 conc -8.0 Moles/L): 1.449
- Percent Growth (TK-10; TK-10, Log10 conc -8.0 Moles/L): 96%
- IC50 (HUVEC): 2.63 µM
